Structures are written as SMILES. pIC50: −log10 of the molar value.

The subject of the assay is human cervical tumor cell line HeLa (ATCC CCL-2). Briefly: SAC-Formation - Nocodazole-Induced Assay. It is filed as cell-based. Conditions: Homo sapiens, HeLa, 24 h, HeLa cells, nocodazole 0.1 μg/ml together with test compound, decrease of mitotic cells (phospho-histone H3 Ser10). The gist of the method: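 HeLa cells, plated overnight, were treated 24 h at 37 °C with nocodazole (0.1 μg/ml final) plus test compound (0.005–20 μM, 0.5% DMSO) added at the same time. After fixation, anti-phospho-histone H3 Ser10 and Hoechst staining gave the mitotic cell fraction by imaging. Values came from four-parameter Hill fits.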
`Cc1nsc(Nc2cnc(C(F)(F)F)cn2)c1C(=O)Nc1ccc(OCC2CCN(CCC(F)(F)F)CC2(F)F)nc1` (stereo not drawn) [Example 402, N-(6-{[3,3-difluoro-1-(3,3,3-trifluoropropyl)piperidin-4-yl]methoxy}pyridin-3-yl)-3-methyl-5-{[5-(trifluoromethyl)pyrazin-2-yl]amino}-1,2-thiazole-4-carboxamide]: the pIC50 (usually −log10 of the IC50, conventionally taken in molar units) was 5.92. In the case of `Cc1nsc(Nc2cnc(C(F)(F)F)cn2)c1C(=O)Nc1ccc(F)c(OC[C@@H]2CCN(CC(F)F)C2)c1` [Example 403, N-(3-{[(3R)-1-(2,2-difluoroethyl)pyrrolidin-3-yl]methoxy}-4-fluorophenyl)-3-methyl-5-{[5-(trifluoromethyl)pyrazin-2-yl]amino}-1,2-thiazole-4-carboxamide] it was 7.52. With `Cc1nsc(Nc2cnc(C(F)(F)F)cn2)c1C(=O)Nc1ccc(OC[C@H]2CCN(CC(F)(F)F)C2)nc1` [Example 404, 3-Methyl-N-(6-{[(3S)-1-(2,2,2-trifluoroethyl)pyrrolidin-3-yl]methoxy}pyridin-3-yl)-5-{[5-(trifluoromethyl)pyrazin-2-yl]amino}-1,2-thiazole-4-carboxamide], the pIC50 was 7.20. For `Cc1nsc(Nc2ccc(C#N)cn2)c1C(=O)Nc1ccc(OC[C@H]2CCN(CC(F)(F)F)C2)nc1` [Example 405, 5-[(5-Cyanopyridin-2-yl)amino]-3-methyl-N-(6-{[(35)-1-(2,2,2-trifluoroethyl)pyrrolidin-3-yl]methoxy}pyridin-3-yl)-1,2-thiazole-4-carboxamide] the value was 7.07. Turning to `CCN1CCC(Oc2ccc(NC(=O)c3c(C)nsc3Nc3cnc(C(F)(F)F)cn3)cn2)C(F)(F)C1` (stereo not drawn) [Example 406, N-{6-[(1-Ethyl-3,3-difluoropiperidin-4-yl)oxy]pyridin-3-yl}-3-methyl-5-{[5-(trifluoromethyl)pyrazin-2-yl]amino}-1,2-thiazole-4-carboxamide], the negative-log IC50 (pIC50) was 7.48.

In the case of `Cc1nsc(Nc2cnc(C(F)(F)F)cn2)c1C(=O)Nc1ccc(OCCN2CCC(F)(F)CC2)nc1` [Example 407, N-{6-[2-(4,4-Difluoropiperidin-1-yl)ethoxy]pyridin-3-yl}-3-methyl-5-{[5-(trifluoromethyl)pyrazin-2-yl]amino}-1,2-thiazole-4-carboxamide], the pIC50 was 7.41. As to `CCCN1C[C@H](F)[C@H](Oc2ccc(NC(=O)c3c(C)nsc3Nc3cnc(C(F)(F)F)cn3)cn2)C1` [Example 408, N-(6-{[(3R,4S)-4-Fluoro-1-propylpyrrolidin-3-yl]oxy}pyridin-3-yl)-3-methyl-5-{[5-(trifluoromethyl)pyrazin-2-yl]amino}-1,2-thiazole-4-carboxamide], the pIC50 was 8.51.

For the compound `Cc1nsc(Nc2cnc(C(F)(F)F)cn2)c1C(=O)Nc1ccc(O[C@@H]2CN(CCC(F)(F)F)C[C@@H]2F)nc1` [Example 409, N-(6-{[(3R,4S)-4-Fluoro-1-(3,3,3-trifluoropropyl)pyrrolidin-3-yl]oxy}pyridin-3-yl)-3-methyl-5-{[5-(trifluoromethyl)pyrazin-2-yl]amino}-1,2-thiazole-4-carboxamide], the pIC50 is 7.68. On to `Cc1nsc(Nc2cnc(C(F)(F)F)cn2)c1C(=O)Nc1ccc(O[C@@H]2CN(CC(F)(F)F)C[C@@H]2F)nc1` [Example 410, N-(6-{[(3R,4S)-4-Fluoro-1-(2,2,2-trifluoroethyl)pyrrolidin-3-yl]oxy}pyridin-3-yl)-3-methyl-5-{[5-(trifluoromethyl)pyrazin-2-yl]amino}-1,2-thiazole-4-carboxamide], for which the pIC50 was 8.00. In the case of `Cc1nsc(Nc2cnc(C(F)(F)F)cn2)c1C(=O)Nc1ccc(O[C@@H]2CN(CC(F)F)C[C@@H]2F)nc1` [Example 411, N-(6-{[(3R,4S)-1-(2,2-Difluoroethyl)-4-fluoropyrrolidin-3-yl]oxy}pyridin-3-yl)-3-methyl-5-{[5-(trifluoromethyl)pyrazin-2-yl]amino}-1,2-thiazole-4-carboxamide] it was 7.62; in that of `Cc1nsc(Nc2cnc(C(F)(F)F)cn2)c1C(=O)Nc1ccc(F)c(O[C@@H]2CCN(CC(F)F)C2)c1` [Example 412, N-(3-{[(3R)-1-(2,2-Difluoroethyl)pyrrolidin-3-yl]oxy}-4-fluorophenyl)-3-methyl-5-{[5-(trifluoromethyl)pyrazin-2-yl]amino}-1,2-thiazole-4-carboxamide], 7.89; in that of `Cc1nsc(Nc2cnc(C(F)(F)F)cn2)c1C(=O)Nc1ccc(F)c(O[C@@H]2CCN(CC(F)(F)F)C2)c1` [Example 413, N-(4-Fluoro-3-{[(3R)-1-(2,2,2-trifluoroethyl)pyrrolidin-3-yl]oxy}phenyl)-3-methyl-5-{[5-(trifluoromethyl)pyrazin-2-yl]amino}-1,2-thiazole-4-carboxamide], 7.77. Take `Cc1nsc(Nc2cnc(C(F)(F)F)cn2)c1C(=O)Nc1ccc(F)c(O[C@@H]2CCN(CCC(F)(F)F)C2)c1` [Example 414, N-(4-Fluoro-3-{[(3R)-1-(3,3,3-trifluoropropyl)pyrrolidin-3-yl]oxy}phenyl)-3-methyl-5-{[5-(trifluoromethyl)pyrazin-2-yl]amino}-1,2-thiazole-4-carboxamide]: the pIC50 was 7.41.

Consider `Cc1nsc(Nc2cnc(C(F)(F)F)cn2)c1C(=O)Nc1ccc(F)c(O[C@H]2CCN(CCC(F)(F)F)C2)c1` [Example 415, N-(4-Fluoro-3-{[(3S)-1-(3,3,3-trifluoropropyl)pyrrolidin-3-yl]oxy}phenyl)-3-methyl-5-{[5-(trifluoromethyl)pyrazin-2-yl]amino}-1,2-thiazole-4-carboxamide], for which the pIC50 is 7.74. In the case of `Cc1nsc(Nc2cnc(C(F)(F)F)cn2)c1C(=O)Nc1ccc(F)c(O[C@H]2CCN(CC(F)(F)F)C2)c1` [Example 416, N-(4-Fluoro-3-{[(35)-1-(2,2,2-trifluoroethyl)pyrrolidin-3-yl]oxy}phenyl)-3-methyl-5-{[5-(trifluoromethyl)pyrazin-2-yl]amino}-1,2-thiazole-4-carboxamide] it was 8.38; in that of `Cc1nsc(Nc2cnc(C(F)(F)F)cn2)c1C(=O)Nc1ccc(F)c(O[C@H]2CCN(CC(F)F)C2)c1` [Example 417, N-(3-{[(3S)-1-(2,2-Difluoroethyl)pyrrolidin-3-yl]oxy}-4-fluorophenyl)-3-methyl-5-{[5-(trifluoromethyl)pyrazin-2-yl]amino}-1,2-thiazole-4-carboxamide], 8.03. Take `Cc1nsc(Nc2cnc(C(F)(F)F)cn2)c1C(=O)Nc1ccc(F)c(OC[C@H]2CCCN(CCC(F)(F)F)C2)c1` [Example 418, N-(4-Fluoro-3-{[(3S)-1-(3,3,3-trifluoropropyl)piperidin-3-yl]methoxy}phenyl)-3-methyl-5-{[5-(trifluoromethyl)pyrazin-2-yl]amino}-1,2-thiazole-4-carboxamide]: the pIC50 is 6.68.

For `Cc1nsc(Nc2cnc(C(F)(F)F)cn2)c1C(=O)Nc1ccc(F)c(OC[C@H]2CCCN(CC(F)(F)F)C2)c1` [Example 419, N-(4-Fluoro-3-{[(3S)-1-(2,2,2-trifluoroethyl)piperidin-3-yl]methoxy}phenyl)-3-methyl-5-{[5-(trifluoromethyl)pyrazin-2-yl]amino}-1,2-thiazole-4-carboxamide], the negative logarithm of the IC50 (pIC50) was 7.42.

The record behind these values is patent US20170334899A1, “AMINO-SUBSTITUTED ISOTHIAZOLES” (Bayer Pharma Aktiengesellschaft, priority 2014, published 2017).
